Laboratory results reported in patent US10953027B2, “Active agents and methods of their use for the treatment of metabolic disorders and nonalcoholic fatty liver disease” (Flagship Pioneering Innovations V, Inc., priority 2018, dated 2021).

How the values were obtained:
Format in all cases: cell-based
[1] = test system: Primary human subcutaneous adipocytes; assay: Glucose uptake in human subcutaneous adipocytes, insulin sensitive model; conditions: for insulin-mediated glucose uptake: insulin sensitive model, compared to DMSO
Procedure: Primary human subcutaneous adipocytes (Zen Bio, Research Triangle Park, N.C.) were differentiated for two weeks prior to treatment. Cells were treated with indicated compounds diluted in (dimethyl-sulfoxide) DMSO in serum free medium for 24 hours in triplicate. After 24 hours, media was exchanged for assay buffer and the compounds were added again but in the presence of approximately 1 nM insulin. Glucose uptake was initiated with the addition of a cocktail containing 2-deoxyglucose and ^3H-2-deoxyglucose and allowed to incubate for 2 hours. Cells were washed, lysed and glucose uptake was measured as counts per well. As an assay control, 100 nM of insulin was used during the 2 hours of glucose uptake. […] Statistical changes in glucose uptake were determined by way ANOVA and compared to DMSO.

[2] = test system: Primary human subcutaneous adipocytes; assay: Glucose uptake in human subcutaneous adipocytes, insulin resistant model
Procedure: As described above, primary human subcutaneous adipocytes were differentiated for two weeks prior to treatment. To induce an insulin resistant state, cells were treated in serum free Dulbecco's Modified Eagle Medium (high glucose) and […] for 24 hours. Cells were simultaneously treated with compounds diluted in DMSO for 24 hours. As described above, after 24 hours, media was exchanged for assay buffer and the compounds were added again but in the presence of approximately 1 nM insulin. Cells were washed and lysed after 2 hours and glucose uptake was measured. […] Statistical changes in glucose uptake were determined by way ANOVA and compared to DMSO.

Mouse 3T3-L1 cells = assay: Mouse adipocyte lipolysis assay; conditions: Mus musculus, 3T3-L1, 24 hours, read-out: Lipolysis Free Fatty Acids % DMSO
Procedure: Once the cells became confluent, they were seeded into a tissue culture treated 96 well plate. […] After 14 days of differentiation, cells were treated with compounds of interest. After 24 hours post-treatment, the cell viability was assessed using CellTiter-Glo Luminescent Cell Viability Assay from Promega, and lipolysis was determined using Lipolysis Assay Kit from ZenBio.

Mouse myocyte = Mouse myocyte lipolysis assay; conditions: Mus musculus; 0.5 mM; read-out: Free glycerol % DMSO
Procedure: Cells were obtained from ATCC and cultured in Dulbecco's Modified Eagle's medium (DMEM) containing 20% fetal bovine serum and 1% penicillin/streptomycin at 37° C. in an incubator with 5% CO2. Once the cells became confluent, they were seeded into a tissue culture treated 96 well plate. The next day, the medium containing DMEM with 2% equine serum was used to start differentiation. Once cells were fully differentiated, they were treated with indicated compounds.

naïve CD4+ T cells = assay: Human regulatory T cell differentiation assay; conditions: 6 days
Procedure: Peripheral blood mononuclear cells (PBMCs) from whole blood donated by health volunteers were separated by Ficoll-Paque gradient centrifugation and naïve CD4^+ T cells were subsequently isolated using magnet beads (EasySep™ Human Naïve CD4^+ T Cell Isolation Kit, Cambridge, Mass.). For regulatory T cell (Treg) differentiation assay, naïve CD4^+ T cells were cultured (1-10×10^4 cells) in CTS OpTmizer medium for 6 days and stimulated with 5 ng/ml TGF-β, 100 U/ml IL-2, and ImmunoCult™ Human […] T Cell Activator; Stemcell #10990) with/without our Compounds. Cell viability was determined using a viability dye (eBioscience Fixable Viability Dye eFluor 780: ThermoFisher 65-0865-14) at 1:500 dilution. The cells were gated for Treg, defined as Live, CD11c^−, CD14^−, CD19^−, CD8^−, CD4^+, CD3^+, CD25^+, FOXP3^+. Percent (%) Tregs were calculated as percentage of CD4^+, CD25^+, FOXP3^+ cells over total CD4^+ T cells. Statistical analysis was performed with GraphPad Prism Software Using One-Way ANOVA.

Caco-2 colonocytes = assay: Human Caco-2 barrier integrity assay (TEER); conditions: 48 hours
Procedure: Caco-2 colonocytes were maintained at 37° C. and 5% CO2 in Dulbecco's Modified Eagle Medium (DMEM) and supplemented with 10% FBS, 1% NEAA, 1% penicillin-streptomycin. At 70-80% confluency, cells were trypsinized and seeded in 0.4 cm^2 transwell collagen I coated membranes with supplemented DMEM in both apical and basolateral compartments. Cells were seeded at a density of 200,000 cells per well and maintained for 10 days to form a polarized barrier with a TransEpithelial Electrial Resistance (TEER) reading above 1000Ω. On the first day of the assay, initial TEER readings were taken and cytokines were added to the basolateral media (50 ng/mL TNFα, 25 ng/mL IFNγ and 10 ng/mL IL-1β) to reduce barrier integrity while compounds diluted in (dimethylsulfoxide) DMSO were added to the apical media in triplicate. After 48 hours, TEER readings were taken again and viability was measured by CellTiter 96® AQueous One Solution Cell Proliferation Assay (Promega). The percent change in TEER over the 48 hours was determined and normalized to the 0.1% DMSO control (Table 6).

[3] = test system: Human Peripheral Blood Monocytes (PBMCs); assay: Cytokine release from human PBMCs; conditions: 100 μM, LPS, 24 hours
Procedure: Human donor blood (8 mL) was collected in sodium citrate CPT tubes and centrifuged at 1,600×g for 20 minutes at room temperature. […] PBMCs samples were centrifuged at 400×g for 10 minutes at 10° C. […] PBMCs were filtered through a 70 micron mesh to remove any cellular debris. […] PBMCs in a 96-well plate were rested for 30 minutes in a 37° C., 5% CO2 incubator, then subsequently treated with 10 μl of indicated compound. After 2 hours 10 μL of LPS (O111:B4) 1 mg/mL was added to test wells. After 24 hours of incubation at 37° C., 5% CO2, 100 μL of cell supernatant was collected and transferred to a 96-well plate (non-tissue treated, flat bottom). The plate was centrifuged at 350×g for 5 minutes at room temperature, and then the clear supernatant transferred to a new 96-well plate (non-tissue treated, flat bottom). The remaining cells were tested for viability using CellTiter-Glo® Luminescent Cell Viability Assay (Promega). The supernatant was analyzed for TNFα, IL-6 and IL-1β (kit LXSAHM-03; R&D Systems), using Luminex Immunoassay Technology (MAGPIX System). Cytokine levels of LPS treated DMSO control samples were set to 100%, and compound treated samples were expressed relative to this (Table 13).

C[C@@H](O)CC(=O)O [(R) BHB]
Insulin Sensitive % DMSO (glucose uptake) ([1]; 2 mM): ++ (140%≥ ≤200%: ++) | Insulin Sensitive % DMSO (glucose uptake) ([1]; 20 mM): ++ (140%≥ ≤200%: ++) | Insulin Resistant % DMSO (glucose uptake) ([2]; 2 mM): + (110%> ≤140%: +) | Insulin Resistant % DMSO (glucose uptake) ([2]; 20 mM): = (50%> ≤110%: =)

C[C@@H](O)CCO [(R)-1,3-Butanediol, (3R)-butane-1,3-diol]
Insulin Sensitive % DMSO (glucose uptake) ([1]; 100 μM): = (50%> ≤110%: =) | Insulin Sensitive % DMSO (glucose uptake) ([1]; 500 μM): ++ (140%≥ ≤200%: ++) | insulin-mediated glucose uptake [1]: significantly enhanced insulin-mediated glucose uptake | Insulin Resistant % DMSO (glucose uptake) ([2]; 100 μM): = (50%> ≤110%: =) | Insulin Resistant % DMSO (glucose uptake) ([2]; 500 μM): = (50%> ≤110%: =) | activity at 100 µM (Mouse 3T3-L1 cells; 100 μM): 50 to 70% | activity at 500 µM (Mouse 3T3-L1 cells; 0.5 mM): 50 to 70% | activity at 500 µM (Mouse myocyte): 70 to 90% | Cell viability % DMSO (naïve CD4+ T cells; 100 uM): = (90%≥ ≤110%: =) | Cell viability % DMSO (naïve CD4+ T cells; 0.5 mM): = (90%≥ ≤110%: =) | activity at 500 µM (naïve CD4+ T cells; Homo sapiens, CD4+ T, 144 h, 0.5 mM, read-out: Treg induction % DMSO): 90 to 110%

C[C@@H](O)CC(=O)O [(R)-BHB]
insulin-mediated glucose uptake [1]: significantly enhanced insulin-mediated glucose uptake | insulin-mediated glucose uptake ([2]; insulin-resistant like state, compared to DMSO): significantly enhanced insulin-mediated glucose uptake

CC(O)CC(=O)O (stereo not drawn) [BHB, β-hydroxybutyrate]
% Change in TEER from DMSO (Caco-2 colonocytes; 200 μM + cytokines): + (125%> ≤150%: +) | % Change in TEER from DMSO (Caco-2 colonocytes; 2 mM + cytokines): − (≤125%: −) | IL6 % DMSO control [3]: = ((=) 90%≥ <110% DMSO) | ILβ % DMSO control [3]: − ((−) ≥110% DMSO;) | TNFα % of DMSO control [3]: − ((−) ≥110% DMSO;)
